# Results from US12611404B2, “Aza-aryl 1H-pyrazol-1-yl benzene sulfonamides” (ChemoCentryx, Inc., priority 2012, dated 2026).
# pIC50: −log10 of the molar value.
# Legend:
# [1] = target: T1, CCR(9) (Homo sapiens, UniProt P51686); assay: calcium mobilization assay (FLIPR, MOLT-4 cells, hTECK); assay type: cell-based; conditions: read-out: CCR(9) Ca^2+
# T1 construct: CCR(9)-expressing cells such as T cell line MOLT-4 cells; host or cells: MOLT-4 cells
# T1 sequence (P51686 1-369): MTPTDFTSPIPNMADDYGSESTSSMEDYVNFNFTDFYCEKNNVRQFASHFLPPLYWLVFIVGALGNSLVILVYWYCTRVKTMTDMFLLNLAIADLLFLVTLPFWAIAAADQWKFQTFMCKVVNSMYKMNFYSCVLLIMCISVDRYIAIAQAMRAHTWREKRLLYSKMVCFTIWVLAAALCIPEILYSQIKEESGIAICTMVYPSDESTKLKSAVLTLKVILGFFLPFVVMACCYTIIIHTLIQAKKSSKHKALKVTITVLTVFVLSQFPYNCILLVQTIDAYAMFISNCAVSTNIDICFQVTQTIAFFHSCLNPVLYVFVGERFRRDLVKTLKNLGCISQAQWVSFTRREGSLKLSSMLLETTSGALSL
# Procedure: In calcium signaling assays used to determine the ability of a compound to interfere with binding between a chemokine receptor and a known chemokine ligand, chemokine receptor-expressing cells (CCR(9)-expressing cells such as T cell line MOLT-4 cells) are first incubated with a compound of interest, such as a potential chemokine antagonist, at increasing concentrations. The cell number can be from 10^5 to 5×10^6 cells per well in a 96-well microtiter plate. The concentration of the compound being tested may range from 0 to 100 μM. After a period of incubation (which can range from 5 to 60 minutes), the treated cells are placed in a Fluorometric Imaging Plate Reader (FLIPR®) (available from Molecular Devices Corp., Sunnyvale, CA) according to the manufacturer's instruction. The FLIPR® system is well known to those skilled in the art as a standard method of performing assays. The cells are then stimulated with an appropriate amount of the chemokine ligand (TECK for CCR(9)) at 5-100 nM final concentration, and the signal of intracellular calcium increase (also called calcium flux) is recorded. The efficacy of a compound as an inhibitor of binding between the […] and the ligand can be calculated as an IC50 (the concentration needed to cause 50% inhibition in signaling) or IC90 (at 90% inhibition). […]
# A cytoplasmic calcium mobilization assay was used to determine the efficacy of potential receptor antagonists at blocking the signals mediated through chemokine receptors, such as CCR(9). This assay was routinely performed using the Fluorescent Imaging Plate Reader (FLIPR, Molecular Devices). […] The chemokine agonist (i.e., hTECK), prepared in HBSS at a 5× concentration of the previously determined EC^50 concentration, was added to each well and resulting changes in the fluorescent intensity, indicative of chemokine receptor-mediated signaling, were recorded on the FLIPR.
# [2] = target: T1, CCR(9); assay: serum chemotaxis (migration) assay, MOLT-4 cells in human serum, TECK; assay type: cell-based; conditions: read-out: A2
# Procedure: In vitro cell chemotaxis assays can be performed (but are not limited to this format) using the 96-well microchamber (called ChemoTX™). The ChemoTX™ system is well known to those skilled in the art as a type of chemotactic/cell migration instrument. In this assay, CCR(9)-expressing cells (such as MOLT-4) are first incubated with a compound of interest, such as a possible CCR(9) antagonist at increasing concentrations. Typically, fifty thousand cells per well are used, but the amount can range from 10^3-10^6 cells per well. The chemokine ligand (for example, CCR(9) ligand TECK, typically at 50 nM (but can range from 5-100 nM)), is placed at the lower chamber and the migration apparatus is assembled. Twenty microliters of test compound-treated cells are then placed onto the membrane. Migration is allowed to take place at 37° C. for a period of time, typically 2.5 hours for CCR(9). At the end of the incubation, the number of cells that migrated across the membrane into the lower chamber is then quantified. The efficacy of a compound as an inhibitor of chemokine-mediated cell migration can be calculated as an IC50 (the concentration needed to reduce cell migration by 50%) or IC90 (for 90% inhibition).
# MOLT-4 cells were obtained from the American Type Culture Collection (Manassas, VA) and cultured in RPMI tissue culture medium supplemented with 10% fetal calf serum (FCS) in a humidified 5% CO2 incubator at 37° C. Recombinant human chemokine proteins TECK was obtained from R&D Systems (Minneapolis, MN). ChemoTX® chemotaxis microchambers were purchased from Neuro Probe (Gaithersburg, MD). CyQUANT® cell proliferation kits were purchased from Molecular Probes (Eugene, Oregon). Calcium indicator dye Fluo-4 AM was purchased from Molecular Devices (Mountain View, CA).
# A serum chemotaxis assay was used to determine the efficacy of potential receptor antagonists at blocking the migration mediated through chemokine receptors, such as CCR(9). This assay was performed using the ChemoTX® microchamber system with a 5-μm pore-sized polycarbonate membrane. MOLT-4 cells were collected by centrifugation at 400×g at room temperature, then suspended at 50 million/ml in human serum, containing 50 mM HEPES (final pH of 7.2). The compound being tested or an equivalent volume of its solvent (DMSO) was then added to the cell/serum mixture at a final DMSO concentration of 0.125% (v/v), and this mixture was then incubated together at 37° C. for one hour. Separately, recombinant human TECK was diluted with chemotaxis buffer (HBSS+0.1% BSA), generally spanning a range from 0.1 nM to 500 nM, after which 29 μl of diluted chemokine was placed in the lower wells of the ChemoTX® plate. The 5-μm (pore size) polycarbonate membrane was placed onto the plate, and 20 μL of the cell/compound mixture was transferred onto each well of the membrane. The plates were incubated at 37° C. for 90 minutes, after which the polycarbonate membranes were removed and 5 μl of the DNA-intercalating agent CyQUANT (Invitrogen, Carlsbad, CA) was added to the lower wells. The amount of fluorescence, corresponding to the number of migrated cells, was measured using a Spectrafluor Plus plate reader (TECAN, San Jose, CA).
# The A2 values were calculated from the following equation, comparing the efficacy of the test compound with that of the DMSO-only control at equi-active chemokine levels: Log(A2)=log[drug(M)]−log [(A′/A)−1]
# where A reflects the potency of the agonist in the absence of antagonist and A′ reflects the potency of the agonist in the presence of antagonist at a given concentration of drug ([drug(M)]).
Compound,pIC50 [1],pIC50 [2]
Cc1cc(NS(=O)(=O)c2ccc(C(C)(C)C)cc2)n(-c2ccc3cccnc3c2)n1,> 7.00,
Cc1cc(NS(=O)(=O)c2ccc(C(C)(C)C)cc2)n(-c2ccc(C#N)c3ncccc23)n1,,5.60 to 6.30
Cc1cc(NS(=O)(=O)c2ccc(C(C)(C)C)cc2)n(-c2ccc(F)c3ncccc23)n1,,5.60 to 6.30
Cc1cc(NS(=O)(=O)c2ccc(C(C)C)cc2)n(-c2cccc3cnccc23)n1,,5.60 to 6.30
COc1ccc(-n2nc(C)cc2NS(=O)(=O)c2ccc(C(C)(C)C)cc2)c2cccnc12,,> 6.30
CC(C)c1ccc(S(=O)(=O)Nc2cc(C(F)(F)F)nn2-c2cccc3cnccc23)cc1,,5.60 to 6.30
Cc1cc(NS(=O)(=O)c2ccc(C(C)(C)C)cc2)n(-c2cncc3ccccc23)n1,,5.60 to 6.30
Cc1cc(NS(=O)(=O)c2ccc(C(C)(C)C)cc2)n(-c2n[nH]c(=O)c3ccccc23)n1,,5.60 to 6.30
Cc1cc(NS(=O)(=O)c2ccc(C(C)(C)C)cc2)n(-c2nncc3ccccc23)n1,,5.60 to 6.30
CC(C)Oc1ccc(S(=O)(=O)Nc2cc(C(F)(F)F)nn2-c2cccc3cnccc23)cc1,,5.60 to 6.30
Cc1cc(NS(=O)(=O)c2ccc(C(C)(C)C)cc2)n(-c2ccc(Cl)c3ncccc23)n1,,> 6.30
Cc1cc(NS(=O)(=O)c2ccc(C(C)(C)C)cc2)n(-c2ccnc3c(F)cccc23)n1,,5.60 to 6.30
Cc1cc(NS(=O)(=O)c2ccc(C(C)(C)C)cc2)n(-c2cccc3c(N)nccc23)n1,,5.60 to 6.30
Cc1cc(NS(=O)(=O)c2ccc(C(C)(C)C)cc2)n(-c2cccc3c[n+]([O-])ccc23)n1,,< 5.60

# Second part, the molecule after the results:
pIC50 [1],pIC50 [2],Compound
> 7.00,,CCc1cc(NS(=O)(=O)c2ccc(C(C)(C)C)cc2)n(-c2cccc3ncccc23)n1
> 7.00,,Cc1cc(NS(=O)(=O)c2ccc(C(C)(C)C)cc2Cl)n(-c2cccc3ncccc23)n1
,> 6.30,CC(C)(C)c1ccc(S(=O)(=O)Nc2cc(CF)nn2-c2cccc3ncccc23)cc1F
,< 5.60,CC(C)(C)c1ccc(S(=O)(=O)Nc2ccnn2-c2cccc3ncccc23)cc1
,> 6.30,Cc1cc(NS(=O)(=O)c2cc(F)c(C(C)(C)C)c(F)c2)n(-c2cccc3ncccc23)n1
,5.60 to 6.30,CCC(C)(C)c1ccc(S(=O)(=O)Nc2cc(C)nn2-c2cccc3ncccc23)cc1
,5.60 to 6.30,CC(C)(C)c1ccc(S(=O)(=O)Nc2cc(C(F)F)nn2-c2cccc3ncccc23)cc1F
,> 6.30,Cc1cc(NS(=O)(=O)c2ccc(C(C)(C)C)c(F)c2)n(-c2ccc(C#N)c3ncccc23)n1
,5.60 to 6.30,Cc1cc(NS(=O)(=O)c2ccc(C(C)(C)C)c(F)c2)n(-c2ccc(N)c3ncccc23)n1
,5.60 to 6.30,Cc1cc(NS(=O)(=O)c2ccc(C(C)(C)C)cc2)n(-c2ccnc3ccccc23)n1
,> 6.30,COc1ccc(-n2nc(C)cc2NS(=O)(=O)c2ccc(C(C)(C)C)c(F)c2)c2cccnc12
,> 6.30,COCc1cc(NS(=O)(=O)c2ccc(C(C)(C)C)cc2)n(-c2cccc3ncccc23)n1
,> 6.30,Cc1cc(NS(=O)(=O)c2ccc(C(C)(C)C)c(F)c2)n(-c2cccc3ncccc23)n1
,5.60 to 6.30,Cc1cc(NS(=O)(=O)c2ccc(OC(C)C)cc2)n(-c2cccc3ncccc23)n1
